Tests used:
[1] = tested on: KRAS G12C mutant NCI-H358 cells; test: Cell proliferation inhibition experiment, 3D spheroid, CellTiter-Glo, NCI-H358; format: cell-based, human; settings: Homo sapiens, NCI-H358, 120 h, NCI-H358 (KRAS G12C mutant) 3D spheroid, 5 days with compound, CellTiter-Glo; read-out: H358 IC50
How it was run: (§1)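 Cells seeded in 2% FBS medium in spheroid plates (800 H358 or 400 A549 per well), grown overnight to form 3D spheroids, then exposed to 3.16-fold compound dilutions (0.1% DMSO) for 5 days. CellTiter-Glo luminescence gave inhibition vs DMSO and medium blanks; IC50 by four-parameter fit.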

[2] = tested on: A549 cells (KRAS G12S mutant); test: Cell proliferation inhibition experiment, 3D spheroid, CellTiter-Glo, A549; format: cell-based, human; settings: Homo sapiens, A549, 120 h, A549 (KRAS G12S mutant) 3D spheroid, 5 days with compound, CellTiter-Glo; read-out: A549 IC50
How it was run: as §1

C=CC(=O)N1CCN2C(=O)c3c(N4CCN(C)[C@@H](C)[C@@H]4C)nc(-c4ccccc4F)c(Cl)c3OC[C@H]2C1 [Z653, (R)-8-acryloyl-4-chloro-3-(2-fluorophenyl)-1-((2S,3S)-2,3,4-trimethylpiperazin-1-yl)-6,6a,7,8,9,10-hexahydro-12H-pyrazino[2,1-c]pyrido[3,4-f][1,4]oxazepin-12 (6aH)-one]
IC50 [1]: 0.0275 µM
IC50 [2]: 9.31 µM

C=CC(=O)N1CCN2C(=O)c3c(N4CC(N5CCN(C)CC5)CC4(C)C)nc(-c4ccccc4F)c(Cl)c3OC[C@H]2C1 (stereo partly drawn) [Z454, (6aR)-8-acryloyl-4-chloro-1-(2,2-dimethyl-4-(4-methylpiperazin-1-yl)pyrrolidin-1-yl)-3-(2-fluorophenyl)-6,6a,7,8,9,10-hexahydro-12H-pyrazino[2,1-c]pyrido[3,4-f][1,4]oxazepin-12-one]
IC50 [1]: 0.002 µM
IC50 [2]: 2.13 µM

C=CC(=O)N1CCN2C(=O)c3c(N4C[C@H](N(C)C)CC4(C)C)nc(-c4c(F)ccc(F)c4O)c(Cl)c3OC[C@H]2C1 (single isomer, unassigned) [Z475-2]
IC50 [1]: 0.008 µM
IC50 [2]: 5.87 µM

C=CC(=O)N1CCN2C(=O)c3c(N4C[C@@H](N5CCC5)CC4(C)C)nc(-c4ccccc4F)c(Cl)c3OC[C@H]2C1 (single isomer, unassigned) [Z471-1]
IC50 [1]: 0.007 µM
IC50 [2]: 2.77 µM

C=CC(=O)N1CCN2C(=O)c3c(N[C@H](C)c4ccccc4)nc(-c4c(O)cccc4F)c(Cl)c3OC[C@H]2C1 [Z28, (6aR)-8-acryloyl-4-chloro-3-(2-fluoro-6-hydroxyphenyl)-1-(((R)-1-phenylethyl)amino)-6,6a,7,8,9,10-hexahydro-12H-pyrazino[2,1-c]pyrido[3,4-f][1,4]oxazepin-12-one]
IC50 [1]: 0.062 µM
IC50 [2]: > 5 µM

C=CC(=O)N1CCN2C(=O)c3c(N4CC(N(C)CCO)CC4(C)C)nc(-c4ccccc4F)c(Cl)c3OC[C@H]2C1 (stereo partly drawn) [Z658, (6aR)-8-acryloyl-4-chloro-3-(2-fluorophenyl)-1-(4-((2-hydroxyethyl)(methyl)amino)-2,2-dimethylpyrrolidin-1-yl)-6,6a,7,8,9,10-hexahydro-12H-pyrazino[2,1-c]pyrido[3,4-f][1,4]oxazepin-12-one]
IC50 [1]: 0.0026 µM
IC50 [2]: 5.02 µM

C=CC(=O)N1CCN2C(=O)c3c(N4CC[C@H](N(C)C)C4(C)C)nc(-c4ccccc4F)c(Cl)c3OC[C@H]2C1 [Z502-2, (6aR)-8-acryloyl-4-chloro-1-(3-(dimethylamino)-2,2-dimethylpyrrolidin-1-yl)-3-(2-fluorophenyl)-6,6a,7,8,9,10-hexahydro-12H-pyrazino[2,1-c]pyrido[3,4-f][1,4]oxazepin-12(6aH)-one]
IC50 [1]: 0.011 µM
IC50 [2]: 6.15 µM

C=CC(=O)N1CCN2C(=O)c3c(N4CC(NC)CC4(C)C)nc(-c4ccccc4F)c(Cl)c3OC[C@H]2C1 (stereo partly drawn) [Z661, (6aR)-8-acryloyl-4-chloro-1-(2,2-dimethyl-4-(methylamino)pyrrolidin-1-yl)-3-(2-fluorophenyl)-6,6a,7,8,9,10-hexahydro-12H-pyrazino[2,1-c]pyrido[3,4-f][1,4]oxazepin-12-one]
IC50 [1]: 0.004 µM
IC50 [2]: 2.66 µM

C=CC(=O)N1CCN2C(=O)c3c(OC4CCCN(C)C4)nc(-c4c(O)cccc4F)c(Cl)c3OC[C@H]2C1 (stereo partly drawn) [Z43, (6aR)-8-acryloyl-4-chloro-3-(2-fluoro-6-hydroxyphenyl)-1-((1-methylpiperidin-3-yl)oxy)-6,6a,7,8,9,10-hexahydro-12H-pyrazino[2,1-c]pyrido[3,4-f][1,4]oxazepin-12-one]
IC50 [1]: 0.039 µM
IC50 [2]: > 30 µM

C=CC(=O)N1CCN2C(=O)c3c(N4C[C@H](N(C)CCOC)CC4(C)C)nc(-c4ccccc4F)c(Cl)c3OC[C@H]2C1 (single isomer, unassigned) [Z406-1]
IC50 [1]: 0.004 µM
IC50 [2]: 2.12 µM

C=CC(=O)N1CCN2C(=O)c3c(N4C[C@@H](N5CCN(C)CC5)CC4(C)C)nc(-c4ccccc4F)c(Cl)c3OC[C@H]2C1 (single isomer, unassigned) [Z454-1]
IC50 [1]: 0.0012 µM
IC50 [2]: 2.63 µM

C=CC(=O)N1CCN2C(=O)c3c(N4C[C@H](N(C)CCO)CC4(C)C)nc(-c4ccccc4F)c(Cl)c3OC[C@H]2C1 (single isomer, unassigned) [Z658-2]
IC50 [1]: 0.012 µM
IC50 [2]: 4.72 µM

C=CC(=O)N1CCN2C(=O)c3c(N4C[C@@H](NC)CC4(C)C)nc(-c4ccccc4F)c(Cl)c3OC[C@H]2C1 (single isomer, unassigned) [Z661-1]
IC50 [1]: 0.006 µM
IC50 [2]: 2.9 µM

C=CC(=O)N1CCN2C(=O)c3c(N4C[C@@H](N(C)CC(F)F)CC4(C)C)nc(-c4ccccc4F)c(Cl)c3OC[C@H]2C1 (single isomer, unassigned) [Z659-1]
IC50 [1]: 0.005 µM
IC50 [2]: 6.18 µM

C=CC(=O)N1CCN2C(=O)c3c(N4C[C@H](N5CC(F)C5)CC4(C)C)nc(-c4ccccc4F)c(F)c3OC[C@H]2C1 [Z654-2, (R)-8-acryloyl-4-fluoro-1-((R)-4-(3-fluoroazetidin-1-yl)-2,2-dimethylpyrrolidin-1-yl)-3-(2-fluorophenyl)-6,6a,7,8,9,10-hexahydro-12H-pyrazino[2,1-c]pyrido[3,4-f][1,4]oxazepin-12-one]
IC50 [1]: 0.015 µM
IC50 [2]: 8.58 µM

C=CC(=O)N1CCN2C(=O)c3c(N4C[C@@H](C(=O)O)CC4(C)C)nc(-c4c(O)cccc4F)c(Cl)c3OC[C@H]2C1 (single isomer, unassigned) [Z458-1]
IC50 [1]: 0.189 µM
IC50 [2]: > 10 µM

C=CC(=O)N1CCN2C(=O)c3c(N4CCN(C)C[C@@H]4C)nc(-c4ccccc4F)c(Cl)c3OC[C@H]2C1 [Z407-1, (R)-8-acryloyl-4-chloro-1-((S)-2,4-dimethylpiperazin-1-yl)-3-(2-fluorophenyl)-6,6a,7,8,9,10-hexahydro-12H-pyrazino[2,1-c]pyrido[3,4-f][1,4]oxazepin-12-one]
IC50 [1]: 0.0188 µM
IC50 [2]: 9.15 µM

C=CC(=O)N1CCN2C(=O)c3c(N4CCN(C)C[C@@H]4C)nc(-c4c(O)cccc4F)c(Cl)c3OC[C@H]2C1 [Z51, (6aR)-8-acryloyl-4-chloro-1-((S)-2,4-dimethylpiperazin-1-yl)-3-(2-fluoro-6-hydroxyphenyl)-6,6a,7,8,9,10-hexahydro-12H-pyrazino[2,1-c]pyrido[3,4-f][1,4]oxazepin-12-one]
IC50 [1]: 0.004 µM
IC50 [2]: > 5 µM

C=CC(=O)N1CCN2C(=O)c3c(N4C[C@H](N5CCN(C)CC5)CC4(C)C)nc(-c4ccccc4F)c(Cl)c3OC[C@H]2C1 (single isomer, unassigned) [Z454-2]
IC50 [1]: 0.0072 µM
IC50 [2]: 2.66 µM

C=CC(=O)N1CCN2C(=O)c3c(N4C[C@H](N5CC(C(F)(F)F)C5)CC4(C)C)nc(-c4ccccc4F)c(Cl)c3OC[C@H]2C1 (single isomer, unassigned) [Z608-1]
IC50 [1]: 0.0995 µM
IC50 [2]: 2.95 µM

C=CC(=O)N1CCN2C(=O)c3c(N4CC(N5CCC(F)(F)C5)CC4(C)C)nc(-c4ccccc4F)c(Cl)c3OC[C@H]2C1 (stereo partly drawn) [Z532, (6aR)-8-acryloyl-4-chloro-1-(3,3-difluoro-5′,5′-dimethyl-[1,3′-bipyrrolidin]-1′-yl)-3-(2-fluorophenyl)-6,6a,7,8,9,10-hexahydro-12H-pyrazino[2,1-c]pyrido[3,4-f][1,4]oxazepin-12-one]
IC50 [1]: 0.0058 µM
IC50 [2]: 3.17 µM

C=CC(=O)N1CCN2C(=O)c3c(N4C[C@H](N5CCN(C)CC5)CC4(C)C)nc(-c4c(F)cccc4Cl)c(Cl)c3OC[C@H]2C1 (single isomer, unassigned) [Z635-2]
IC50 [1]: 0.007 µM
IC50 [2]: 2.97 µM

C=CC(=O)N1CCN2C(=O)c3c(N4CC(N(C)C)CC4(C)C)nc(-c4ccccc4F)c(Cl)c3OC[C@H]2C1 (single isomer, unassigned) [Z453-2]
IC50 [1]: 0.0166 µM
IC50 [2]: 6.71 µM

C=CC(=O)N1CCN2C(=O)c3c(N4CCOC(C)(C)C4)nc(-c4c(O)cccc4F)c(Cl)c3OC[C@H]2C1 [Z37, (6aR)-8-acryloyl-4-chloro-1-(2,2-dimethylmorpholino)-3-(2-fluoro-6-hydroxyphenyl)-6,6a,7,8,9,10-hexahydro-12H-pyrazino[2,1-c]pyrido[3,4-f][1,4]oxazepin-12-one]
IC50 [1]: 0.009 µM
IC50 [2]: > 30 µM

C=CC(=O)N1CCN2C(=O)c3c(NC45CC(C4)C5)nc(-c4c(O)cccc4F)c(Cl)c3OC[C@H]2C1 [Z41, (6aR)-8-acryloyl-1-(bicyclo [1.1.1]pentan-1-ylamino)-4-chloro-3-(2-fluoro-6-hydroxyphenyl)-6,6a,7,8,9,10-hexahydro-12H-pyrazino[2,1-c]pyrido[3,4-f][1,4]oxazepin-12-one]
IC50 [1]: 0.022 µM
IC50 [2]: 1.22 µM

C=CC(=O)N1CCN2C(=O)c3c(N4CCN(C)C[C@@H]4C)nc(-c4c(F)cccc4C(F)F)c(Cl)c3OC[C@H]2C1 [Z456, (6aR)-8-acryloyl-4-chloro-3-(2-(difluoromethyl)-6-fluorophenyl)-1-((S)-2,4-dimethylpiperazin-1-yl)-6,6a,7,8,9,10-hexahydro-12H-pyrazino[2,1-c]pyrido[3,4-f][1,4]oxazepin-12-one]
IC50 [1]: 0.0094 µM
IC50 [2]: 9.73 µM

C=CC(=O)N1CCN2C(=O)c3c(N4CC(C(=O)O)CC4(C)C)nc(-c4c(O)cccc4F)c(Cl)c3OC[C@H]2C1 (stereo partly drawn) [Z458, 1-((6aR)-8-acryloyl-4-chloro-3-(2-fluoro-6-hydroxyphenyl)-12-oxo-6,6a,7,8,9,10-hexahydro-12H-pyrazino[2,1-c]pyrido[3,4-f][1,4]oxazepin-1-yl)-5,5-dimethylpyrrolidine-3-carboxylic acid]
IC50 [1]: 0.305 µM
IC50 [2]: > 30 µM

— patent publication US20230203060A1 (GENFLEET THERAPEUTICS (SHANGHAI) INC., priority 2020, published 2023)
